Earlier results in US20050170064A1, “Plant sterol-containing food, and method for preparing the same” (Eugene Science Inc., priority 2002, published 2005).

Tested on: LDL-C level
Details: applied form in an oil phase (margarine)

Question: With sitostanol fatty acid ester as the substance, how does the “Reduction of the LDL-C level” value read?
Answer: The value was ≤ 16%.
